# According to patent US6898533B1, “Methods for predicting the biological, chemical, and physical properties of molecules from their spectral properties” (The United States of America as represented by the …, priority 2000, dated 2005):
# Read-outs that look alike come from different tables or passages of the source.
# How the values were obtained:
# [1] = quantum yield for photosensitized production of singlet oxygen; assay type: physicochemical
# Description: Phototosensitized oxidations involving singlet oxygen, a strong oxidant, are implicated in photodynamic inactivation of viruses and cells, in phototherapy for cancer, in photocarcinogenesis and in photodegradation of dyes and polymers. Quenching of excited singlet and triplet states of many substances by ground state molecular oxygen produces singlet oxygen; the lowest electronically excited singlet state of molecular oxygen. A compilation of the quantum yields for the formation of singlet oxygen in fluid solutions for over 700 substances is available from the Notre Dame Radiation Laboratory—Radiation Chemistry Data Center.
# The compounds are divided into two endpoint classes based upon having a high quantum yield for production of singlet oxygen (H, QY>0.50) or a low quantum yield for production of singlet oxygen (L, QY<0.50).
# [2] = formation of singlet oxygen in fluid solutions; cited from earlier work
# [3] = system: estrogen receptor; assay: estrogen receptor binding class of the 30-compound training set
# Description: Two Spectral Data-Activity Relationship (SDAR) models were established, based on ^13C NMR and EI MS spectra, for 30 estrogenic chemicals whose relative binding affinities (RBA) for the alpha (ERα) and beta (ERβ) estrogen receptors are available.
# Strong binders to the estrogen receptor were classified as having a log (RBA) over 0.0, and medium binders to the estrogen receptor were classified as having a log (RBA) of less than or equal to 0.0.
# [4] = system: estrogen receptor; assay: estrogen receptor relative binding affinity, expanded training set of 107 compounds; conditions: input class, 107-compound training set
# Description: The training set included weak estrogen receptor binders in addition to strong and medium estrogen receptor binders.
# For this model, strong estrogen receptor binders were defined as having log(RBA)>−0.25 and weak estrogen receptor binders were defined as having log(RBA)<−3.0. Medium estrogen receptor binders were defined as having log(RBA) in between.
# [5] = molecular target: T1, alpha (ERα) estrogen receptor (Homo sapiens, UniProt P03372); conditions: cited from earlier work
# T1 sequence (P03372 1-595): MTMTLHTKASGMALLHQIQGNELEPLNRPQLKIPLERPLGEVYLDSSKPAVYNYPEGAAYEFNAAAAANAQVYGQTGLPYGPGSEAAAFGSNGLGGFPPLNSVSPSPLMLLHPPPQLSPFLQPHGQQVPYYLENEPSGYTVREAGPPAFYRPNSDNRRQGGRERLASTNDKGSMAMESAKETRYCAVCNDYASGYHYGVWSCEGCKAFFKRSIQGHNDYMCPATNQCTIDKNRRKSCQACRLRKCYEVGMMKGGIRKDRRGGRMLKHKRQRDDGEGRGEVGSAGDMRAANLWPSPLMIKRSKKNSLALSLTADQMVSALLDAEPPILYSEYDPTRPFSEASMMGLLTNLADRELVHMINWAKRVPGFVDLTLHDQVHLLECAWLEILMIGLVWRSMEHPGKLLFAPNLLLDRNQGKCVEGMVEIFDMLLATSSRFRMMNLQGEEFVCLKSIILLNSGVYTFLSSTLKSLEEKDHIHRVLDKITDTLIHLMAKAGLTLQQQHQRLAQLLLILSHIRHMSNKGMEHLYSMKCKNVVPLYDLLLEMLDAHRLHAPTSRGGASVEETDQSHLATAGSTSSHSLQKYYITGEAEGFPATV
# [6] = molecular target: beta (ERβ) estrogen receptor (Rattus norvegicus, UniProt Q62986); conditions: cited from earlier work
# [7] = system: estrogen receptor; conditions: 107-compound training set; cited from earlier work
# [8] = class from singlet oxygen quantum yield
# [9] = SDAR training input endpoint class, 30 compounds
# [10] = log of relative binding affinity, 17-β-estradiol RBA = 100
# beta (ERβ) estrogen receptor, sequence (Q62986 whole entry): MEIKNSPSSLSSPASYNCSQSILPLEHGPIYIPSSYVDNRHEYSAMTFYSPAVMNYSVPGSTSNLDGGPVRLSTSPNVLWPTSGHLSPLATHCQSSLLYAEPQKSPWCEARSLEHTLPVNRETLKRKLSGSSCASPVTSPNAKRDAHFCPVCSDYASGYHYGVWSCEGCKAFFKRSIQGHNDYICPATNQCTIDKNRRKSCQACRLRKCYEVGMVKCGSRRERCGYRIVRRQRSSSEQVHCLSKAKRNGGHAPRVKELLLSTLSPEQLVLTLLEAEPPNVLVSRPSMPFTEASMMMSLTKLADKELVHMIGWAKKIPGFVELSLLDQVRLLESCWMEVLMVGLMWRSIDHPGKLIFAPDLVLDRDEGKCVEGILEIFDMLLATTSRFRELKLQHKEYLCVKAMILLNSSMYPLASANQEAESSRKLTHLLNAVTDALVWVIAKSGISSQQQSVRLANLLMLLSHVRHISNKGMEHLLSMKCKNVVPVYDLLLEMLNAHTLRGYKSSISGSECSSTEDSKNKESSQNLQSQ
compound,measurement,setting,value
"c1ccc(-c2oc(-c3ccccc3)c3ccccc23)cc1 [1,3-Diphenylisobenzofuran]",Endpoint Class,[1]; [8],"L (low quantum yield for production of singlet oxygen (L, QY<0.50))"
same,Quantum Yield,[2],0.26
Cn1ccc2ccccc21 [1-Methylindole],Endpoint Class,[1]; [8],"L (low quantum yield for production of singlet oxygen (L, QY<0.50))"
same,Quantum Yield,[2],0.35
"C[C@]12CC[C@@H]3c4ccc(O)c(O)c4CC[C@H]3[C@@H]1CC[C@@H]2O [4-OH-Estradiol, 4-hydroxy-estradiol]",Class Input,[3]; [9],S (Strong binders to the estrogen receptor were classified as having a log (RBA) over 0.0)
same,Class,[4],S (strong estrogen receptor binders were defined as having log(RBA)>−0.25)
same,Log-(RBA) alpha,[5]; [10],1.11
same,Log-(RBA) beta,[6]; [10],0.85
C[C@]12CCC(=O)C[C@@H]1CC[C@@H]1[C@@H]2CC[C@]2(C)C(=O)CC[C@@H]12 [5α-Androstanedione],Class Input,[3],M (key: Strong binders to the estrogen receptor were classified as having a log (RBA) over 0.0; M: medium binders to the estrogen receptor were classified as having a log (RBA) of less than or equal to 0.0)
same,RBA class in words,[3],medium
same,Log-(RBA) alpha,[5],<−2.0
same,Log-(RBA) beta,[6],<−2.0
C[C@]12CCC(=O)C[C@H]1CC[C@@H]1[C@@H]2CC[C@]2(C)C(=O)CC[C@@H]12 [5β-Androstanedione],Class Input,[3],M (key: Strong binders to the estrogen receptor were classified as having a log (RBA) over 0.0; M: medium binders to the estrogen receptor were classified as having a log (RBA) of less than or equal to 0.0)
same,RBA class in words,[3],medium
same,Log-(RBA) alpha,[5],<−2.0
same,Log-(RBA) beta,[6],<−2.0
"O=C1c2ccccc2C(=O)c2ccccc21 [9,10-Anthraquinone]",Endpoint Class,[1]; [8],"L (low quantum yield for production of singlet oxygen (L, QY<0.50))"
same,Quantum Yield,[2],0.15
C[C@]12CC[C@@H]3c4ccc(O)cc4CC[C@H]3[C@@H]1CC[C@H]2O [17α-Estradiol],Class Input,[3]; [9],S (Strong binders to the estrogen receptor were classified as having a log (RBA) over 0.0)
same,Class,[4],S (strong estrogen receptor binders were defined as having log(RBA)>−0.25)
same,log RBA,[7],0.49
C(=C\c1ccccc1)/c1ccccc1 [(E)-Stilbene],Endpoint Class,[1]; [8],"L (low quantum yield for production of singlet oxygen (L, QY<0.50))"
same,Quantum Yield,[2],0.08
CC(=O)c1ccccc1 [Acetophenone],Endpoint Class,[1]; [8],"L (low quantum yield for production of singlet oxygen (L, QY<0.50))"
same,Quantum Yield,[2],0.29
c1ccc2nc3ccccc3cc2c1 [Acridine],Endpoint Class,[1]; [8],"H (high quantum yield for production of singlet oxygen (H, QY>0.50))"
same,Quantum Yield,[2],0.83
c1ccc2cc3ccccc3cc2c1 [Anthracene],Endpoint Class,[1]; [8],"H (high quantum yield for production of singlet oxygen (H, QY>0.50))"
same,Quantum Yield,[2],0.83
O=C1c2ccccc2Cc2ccccc21 [Anthrone],Endpoint Class,[1]; [8],"L (low quantum yield for production of singlet oxygen (L, QY<0.50))"
same,Quantum Yield,[2],0.25
O=C(C(=O)c1ccccc1)c1ccccc1 [Benzil],Endpoint Class,[1]; [8],"H (high quantum yield for production of singlet oxygen (H, QY>0.50))"
O=C(c1ccccc1)c1ccccc1 [Benzophenone],Endpoint Class,[1]; [8],"L (low quantum yield for production of singlet oxygen (L, QY<0.50))"
same,Quantum Yield,[2],0.29
CC(=O)C(C)=O [Biacetyl],Endpoint Class,[1]; [8],"H (high quantum yield for production of singlet oxygen (H, QY>0.50))"
same,Quantum Yield,[2],0.57
c1ccc(-c2ccccc2)cc1 [Biphenyl],Endpoint Class,[1],"H (key: high quantum yield for production of singlet oxygen (H, QY>0.50); low quantum yield for production of singlet oxygen (L, QY<0.50))"
O=c1oc2cc(O)ccc2c2oc3cc(O)ccc3c12 [Coumestrol],Log-(RBA) beta,[6]; [10],2.27
C[C@]12CC[C@H](O)CC1=CC[C@@H]1[C@@H]2CC[C@]2(C)C(=O)CC[C@@H]12 [Dehydroepiandroster-one],Class Input,[3]; [9],M (medium binders to the estrogen receptor were classified as having a log (RBA) of less than or equal to 0.0)
same,Log-(RBA) alpha,[5],−1.40
same,Log-(RBA) beta,[6],−1.15
CC/C(=C(/CC)c1ccc(O)cc1)c1ccc(O)cc1 [Diethystibesterol],Class Input,[3],S (key: Strong binders to the estrogen receptor were classified as having a log (RBA) over 0.0; M: medium binders to the estrogen receptor were classified as having a log (RBA) of less than or equal to 0.0)
same,Class,[4],S (strong estrogen receptor binders were defined as having log(RBA)>−0.25)
same,Log-(RBA) beta,[6],2.47
same,log RBA,[7],2.60
C[C@]12CCC(=O)C[C@@H]1CC[C@@H]1[C@@H]2CC[C@]2(C)[C@@H](O)CC[C@@H]12 [Dihydrotestosterone],Class Input,[3],M (key: Strong binders to the estrogen receptor were classified as having a log (RBA) over 0.0; M: medium binders to the estrogen receptor were classified as having a log (RBA) of less than or equal to 0.0)
same,Log-(RBA) beta,[6],−0.77
C[C@]12CC[C@@H]3c4ccc(O)cc4CC[C@H]3[C@@H]1C[C@@H](O)[C@@H]2O [Estriol],Log-(RBA) beta,[6]; [10],1.32
c1ccc2c(c1)Cc1ccccc1-2 [Flourene],Endpoint Class,[1]; [8],"H (high quantum yield for production of singlet oxygen (H, QY>0.50))"
same,Quantum Yield,[2],0.74
"CCCCN(C)C(=O)CCCCCCCCCC[C@@H]1Cc2cc(O)ccc2[C@H]2CC[C@]3(C)[C@@H](O)CC[C@H]3[C@H]12 [ICI 164,384]",Class Input,[3]; [9],S (Strong binders to the estrogen receptor were classified as having a log (RBA) over 0.0)
same,Class,[4],S (strong estrogen receptor binders were defined as having log(RBA)>−0.25)
same,Log-(RBA) beta,[6]; [10],2.22
same,log RBA,[7],1.16
C[C@]12CC[C@H]3[C@@H](CCC4=CC(=O)CC[C@@H]43)[C@@H]1CC[C@@H]2O [Nandrolone],Class Input,[3]; [9],M (medium binders to the estrogen receptor were classified as having a log (RBA) of less than or equal to 0.0)
same,Log-(RBA) alpha,[5],−2.00
same,Log-(RBA) beta,[6],−0.64
O=C1C=Cc2cccc3cccc1c23 [Phenalen-1-one],Endpoint Class,[1]; [8],"H (high quantum yield for production of singlet oxygen (H, QY>0.50))"
same,Quantum Yield,[2],0.94
CC(C)(C)C(=S)c1ccccc1 [Pivalothiophenone],Endpoint Class,[1]; [8],"H (high quantum yield for production of singlet oxygen (H, QY>0.50))"
same,Quantum Yield,[2],1.0
O=c1ccc2cc3ccoc3cc2o1 [Psoralen],Endpoint Class,[1]; [8],"L (low quantum yield for production of singlet oxygen (L, QY<0.50))"
same,Quantum Yield,[2],0.0055
c1cc2ccc3cccc4ccc(c1)c2c34 [Pyrene],Endpoint Class,[1]; [8],"H (high quantum yield for production of singlet oxygen (H, QY>0.50))"
same,Quantum Yield,[2],0.71
CC/C(=C(\c1ccccc1)c1ccc(OCCN(C)C)cc1)c1ccccc1 [Tamoxifen],Class Input,[3]; [9],S (Strong binders to the estrogen receptor were classified as having a log (RBA) over 0.0)
same,Class,[4],S (strong estrogen receptor binders were defined as having log(RBA)>−0.25)
C[C@]12CC[C@H]3[C@@H](CCC4=CC(=O)CC[C@@]43C)[C@@H]1CC[C@@H]2O [Testosterone],Class Input,[3]; [9],M (medium binders to the estrogen receptor were classified as having a log (RBA) of less than or equal to 0.0)
same,Log-(RBA) alpha,[5],−2.10
same,Log-(RBA) beta,[6],−2.10
c1ccc2cc3cc4ccccc4cc3cc2c1 [Tetracene],Endpoint Class,[1]; [8],"H (high quantum yield for production of singlet oxygen (H, QY>0.50))"
same,Quantum Yield,[2],0.70
O=c1c2ccccc2oc2ccccc12 [Xanthen-9-one],Endpoint Class,[1]; [8],"L (low quantum yield for production of singlet oxygen (L, QY<0.50))"
same,Quantum Yield,[2],0.33
C[C@H]1CCC[C@@H](O)CCCCCc2cc(O)cc(O)c2C(=O)O1 [β-Zearanol],Class Input,[3]; [9],M (medium binders to the estrogen receptor were classified as having a log (RBA) of less than or equal to 0.0)
same,Log-(RBA) alpha,[5]; [10],−1.20
